In assay [1] the test system is TP3-T6 (DNA, G4) TGGGGTCCGAGGCGGGGCTTGGG
Put plainly: 1H NMR titration (imino protons). To be noted: 70 mM KCl, 20 mM KH2PO4, pH 7.0, 25 °C, 90% H2O.

Assay [2] shares this test system. Put plainly: CD melting. To be noted: 70 mM KCl; 20 mM phosphate pH 7.1; 2 µM DNA, DNA:ligand 1:3.
For assay [3] the test system is unchanged. The experiment in a line: CD melting at 265 nm. As to conditions: 70 mM KCl; 20 mM phosphate pH 7.1; 2 µM DNA, 6 µM ligand; no stabilization.

We go through 5 molecules from PMC9369712 (2022).

Broadly, the ΔTm is the shift of the melting midpoint relative to a reference.

For the molecule `Cc1cnc(CNC(=O)c2c(=O)c3ccc(N4CCCN(C)CC4)nc3n3c2sc2ccccc23)cn1`, the binding result in assay [1] (3'-end tetrad) is given as “yes”.

Turning to `Cc1cc2c3c([n+](C)c4ccc(F)cc4c3c1)-c1cc(F)ccc1N2C`, the binding result in assay [1] (5'-terminal tetrad signals broadened) is recorded as “yes”.

As to `NCCOc1cc(C(=O)Nc2cc(OCCN)c3ccccc3n2)nc(C(=O)Nc2cc(OCCN)c3ccccc3n2)c1`, in assay [2], the ΔTm is above 30 °C.

For `CN(C)CCNC(=O)c1cccn2c(=O)c3sc4ccccc4c3nc12`, the binding entry in assay [3] and in assay [1] (3'-end tetrad) was “yes” in each case.

`CN(C)CCNC(=O)c1cccn2c(=O)c3cc4ccccc4cc3nc12`: the binding result in assay [1] (3'-end tetrad) was “yes”.
